The test addresses T1, BACE-1 enzyme (Homo sapiens, UniProt P56817).
T1 construct: purchased R & D Systems 931AS
The test can be described thus: BACE Fluorescence Resonance Energy Transfer (FRET) Assay. In kind it is biochemical. The conditions noted are these: pH 4-4.5, 30 min pre-incubation, about 1.5 hours reaction. In short, it runs like this:
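Fluorescence (ex 540, em 585 nm) after ~1.5 h room-temperature cleavage of a quenched rhodamine peptide tracks BACE-1 activity. Enzyme and compound first sit 30 min in pH 4-4.5 acetate buffer with CHAPS, Triton X-100, EDTA, 7.5% DMSO. Values given as IC50 or % inhibition.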

Our source for the IC50 values is US20120101093A1, “SUBSTITUTED IMIDAZO[1,2-A]PYRIDINE DERIVATIVES, PHARMACEUTICAL COMPOSITIONS, AND METHODS OF USE AS BETA-SECRETASE INHIBITORS” (HIGH POINT PHARMACEUTICALS, LLC, priority 2009, published 2012).

T1 sequence (P56817 46-457 limits assumed): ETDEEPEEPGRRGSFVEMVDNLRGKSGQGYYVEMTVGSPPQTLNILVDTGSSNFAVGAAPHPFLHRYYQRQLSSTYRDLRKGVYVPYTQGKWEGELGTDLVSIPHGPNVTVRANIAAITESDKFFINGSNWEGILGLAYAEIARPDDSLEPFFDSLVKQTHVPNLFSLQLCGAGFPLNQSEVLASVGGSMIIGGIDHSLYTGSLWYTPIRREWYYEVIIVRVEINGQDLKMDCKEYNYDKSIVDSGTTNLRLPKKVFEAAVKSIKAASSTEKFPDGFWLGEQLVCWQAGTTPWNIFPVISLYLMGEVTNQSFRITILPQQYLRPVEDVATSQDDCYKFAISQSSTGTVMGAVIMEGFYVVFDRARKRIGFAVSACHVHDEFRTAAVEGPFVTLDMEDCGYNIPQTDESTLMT

On to `O=C(Nc1nc2cc(-c3cc(F)cc(Cl)c3)ccc2[nH]1)c1cn2cc(F)cc(OCCN3CCCCC3)c2n1` [Example 147, 6-Fluoro-8-(2-piperidin-1-yl-ethoxy)-imidazo[1,2-a]pyridine-2-carboxylic acid [5-(3-chloro-5-fluoro-phenyl)-1H-benzoimidazol-2-yl]-amide], for which the IC50 worked out at 0.41 µM.
In the case of `CN1CCN(CCOc2cc(F)cn3cc(C(=O)Nc4nc5cc(-c6cc(F)cc(Cl)c6)ccc5[nH]4)nc23)CC1` [Example 148, 6-Fluoro-8-[2-(4-methyl-piperazin-1-yl)-ethoxy]-imidazo[1,2-a]pyridin-2-carboxylic acid [5-(3-chloro-5-fluoro-phenyl)-1H-benzoimidazol-2-yl]-amide] it was 0.39 µM; in that of `Cc1cc(OCCN2CCCCC2)c2nc(C(=O)Nc3nc4cc(-c5cc(F)cc(Cl)c5)ccc4[nH]3)cn2c1` [Example 149, 6-Methyl-8-(2-piperidin-1-yl-ethoxy)-imidazo[1,2-a]pyridine-2-carboxylic acid [5-(3-chloro-5-fluoro-phenyl)-1H-benzoimidazol-2-yl]-amide], 0.57 µM; in that of `Cc1cc(OCCN2CCN(C)CC2)c2nc(C(=O)Nc3nc4cc(-c5cc(F)cc(Cl)c5)ccc4[nH]3)cn2c1` [Example 150, 6-Methyl-8-[2-(4-methyl-piperazin-1-yl)-ethoxy]-imidazo[1,2-a]pyridine-2-carboxylic acid [5-(3-chloro-5-fluoro-phenyl)-1H-benzoimidazol-2-yl]-amide], 0.46 µM.
The compound `COc1cccn2cc(C(=O)Nc3nc4cc(-c5cc(F)cc(Cl)c5)ccc4[nH]3)nc12` [Example 151, 8-Methoxy-imidazo[1,2-a]pyridine-2-carboxylic acid [5-(3-chloro-5-fluoro-phenyl)-1H-benzoimidazol-2-yl]-amide] returned an IC50 of 0.31 µM.
In the case of `O=C(Nc1nc2cc(-c3cc(F)cc(Cl)c3)ccc2[nH]1)c1cn2cc(F)cc(N3CC[C@H](O)C3)c2n1` [Example 152, 6-Fluoro-8-((S)-3-hydroxy-pyrrolidin-1-yl)-imidazo[1,2-a]pyridine-2-carboxylic acid [5-(3-chloro-5-fluoro-phenyl)-1H-benzoimidazol-2-yl]-amide] it was 1.53 µM.
For `O=C(Nc1nc2cc(-c3cc(F)cc(Cl)c3)ccc2[nH]1)c1cn2cc(F)cc(N3CC[C@@H](O)C3)c2n1` [Example 153, 6-Fluoro-8-((R)-3-hydroxy-pyrrolidin-1-yl)-imidazo[1,2-a]pyridine-2-carboxylic acid [5-(3-chloro-5-fluoro-phenyl)-1H-benzoimidazol-2-yl]-amide], 1.83 µM corresponded to half-maximal inhibition (IC50).
In the case of `O=C(Nc1nc2cc(-c3cc(F)cc(Cl)c3)ccc2[nH]1)c1cn2cc(F)cc(N3CCC(O)CC3)c2n1` [Example 154, 6-Fluoro-8-(4-hydroxy-piperidin-1-yl)-imidazo[1,2-a]pyridine-2-carboxylic acid [5-(3-chloro-5-fluoro-phenyl)-1H-benzoimidazol-2-yl]-amide], 1.33 µM corresponded to half-maximal inhibition (IC50).
With `O=C(Nc1nc2cc(-c3cc(F)cc(Cl)c3)ccc2[nH]1)c1cn2c(N3CC[C@H](O)C3)cccc2n1` [Example 155, 5-((S)-3-Hydroxy-pyrrolidin-1-yl)-imidazo[1,2-a]pyridine-2-carboxylic acid [5-(3-chloro-5-fluoro-phenyl)-1H-benzoimidazol-2-yl]-amide], the IC50 was found to be 0.25 µM.
`CO[C@@H]1CCN(c2cccc3nc(C(=O)Nc4nc5cc(-c6cc(F)cc(Cl)c6)ccc5[nH]4)cn23)C1` [Example 156, 5-((R)-3-Methoxy-pyrrolidin-1-yl)-imidazo[1,2-a]pyridine-2-carboxylic acid [5-(3-chloro-5-fluoro-phenyl)-1H-benzoimidazol-2-yl]-amide] gave an IC50 of 0.29 µM.
`CO[C@H]1CCN(c2cccc3nc(C(=O)Nc4nc5cc(-c6cc(F)cc(Cl)c6)ccc5[nH]4)cn23)C1` [Example 157, 5-((S)-3-Methoxy-pyrrolidin-1-yl)-imidazo[1,2-a]pyridine-2-carboxylic acid [5-(3-chloro-5-fluoro-phenyl)-1H-benzoimidazol-2-yl]-amide] came in with an IC50 of 0.32 µM.

One may read the IC50 as the point on the concentration scale where inhibition reaches its midpoint.
